Assay results reported in patent US20090143426A1, “Synthesis of 1,3,6-trisubstituted-2-carboxyquinol-4-ones as selective ET A antagonists and their use as medicaments” (priority 2007, published 2009).
“Also recorded” adds a separate entry of the source. Positions of bridges follow the written chain, without caps; N, C: chain ends. Non-standard residues stand in square brackets, D forms with d. Residues, ends and D or L forms follow the SMILES beside them. No end group written: not given here.

Columns and labels:
[1] = tested on: LPS-stimulated pregnant mice; details: Koscica et al. 2004, Wang et al. 2008; cited from earlier work
BioXTal ET-A receptor = molecular target: T1, BioXTal ET-A receptor (Homo sapiens, UniProt P25101); experiment: In vitro competitive binding assay with [125I]Tyr13-ET-1, ET-A receptor; details: [125I]ET-1 224 pM; 10 ug receptor; 30 to 32° C., two hours; triplicate; read-out: IC50, inhibition of specific [125I] ET-1 binding to ETA receptor
T1 construct: purchased BioXTal
T1 sequence (P25101 21-427): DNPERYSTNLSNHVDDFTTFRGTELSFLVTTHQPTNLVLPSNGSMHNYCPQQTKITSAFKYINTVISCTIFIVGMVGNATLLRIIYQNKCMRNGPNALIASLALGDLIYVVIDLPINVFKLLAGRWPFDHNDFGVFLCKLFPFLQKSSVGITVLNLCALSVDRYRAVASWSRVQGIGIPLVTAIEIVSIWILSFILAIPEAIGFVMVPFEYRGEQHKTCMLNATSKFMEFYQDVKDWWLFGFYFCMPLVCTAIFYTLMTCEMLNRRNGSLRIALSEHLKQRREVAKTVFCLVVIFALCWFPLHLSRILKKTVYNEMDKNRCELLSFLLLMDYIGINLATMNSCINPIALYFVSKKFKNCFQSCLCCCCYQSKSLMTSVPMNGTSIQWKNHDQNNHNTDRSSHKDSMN
Protocol: (§1) In vitro binding assay. Varying concentrations of HJP272, ranging from 10^3 to 10^8 pM, were incubated with 10 ug of BioXTal ET-A or ET-B receptor and 224 pM [^125I]Tyr13-ET-1 in 50 mM NaH2PO4, 150 mM NaCl, 5 mM EDTA, and 0.1% bovine serum albumin.
(§2) For total binding, radio labeled ET-1 and receptor were incubated without the receptor antagonist. For non-specific binding, 300 nM cold ET-1 was substituted for the antagonist. Assay mixtures were incubated at 30 to 32° C. for two hours and the assays were stopped by the addition of cold buffer. Assay mixtures were then quickly filtered through GF/C Whatman filters and washed with cold assay buffer in a Millipore sampling manifold. Filters were collected and counts per minute of the bound radio labeled ET-1 were read by a Packard Cobra Gamma Counter (Perkin Elmer).
(§3) Percent specific binding was calculated for all data points. Assays containing ET-A receptor were run in triplicate and assays containing the ET-B receptor were run in duplicate.

BioXTal ET-B receptor = molecular target: T2, BioXTal ET-B receptor (Homo sapiens, UniProt P24530); experiment: In vitro competitive binding assay with [125I]Tyr13-ET-1, ET-B receptor; details: selectivity ETA versus ETB; ET-B assays in duplicate
T2 construct: purchased BioXTal
T2 sequence (P24530 27-442): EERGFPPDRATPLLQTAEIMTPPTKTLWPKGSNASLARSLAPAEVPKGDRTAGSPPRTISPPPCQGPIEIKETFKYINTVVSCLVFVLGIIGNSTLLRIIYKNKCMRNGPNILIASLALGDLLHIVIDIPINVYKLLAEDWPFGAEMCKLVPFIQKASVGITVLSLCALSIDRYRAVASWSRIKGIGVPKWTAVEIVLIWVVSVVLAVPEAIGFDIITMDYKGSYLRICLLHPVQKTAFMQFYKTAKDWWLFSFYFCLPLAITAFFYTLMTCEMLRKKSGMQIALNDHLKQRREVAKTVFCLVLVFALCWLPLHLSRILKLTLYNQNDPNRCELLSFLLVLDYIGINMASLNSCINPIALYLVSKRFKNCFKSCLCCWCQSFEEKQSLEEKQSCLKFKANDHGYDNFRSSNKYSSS
Protocol: as §1, §2, §3

[2] = tested on: LPS-induced (infection-associated) preterm labor and delivery in pregnant C57B1/6 mice; experiment: Animal model of preterm birth (LPS-injected timed pregnant mice); assay type: in vivo, mouse
Protocol: Animal models of preterm birth. The Animal Care and Utilization Committee of the College of Pharmacy and Allied Health Professions, St. John's University approved all experimental protocols, and the research was conducted according to the requirements of NIH Guide for the Care and Use of Laboratory Animals (revised 1996). C57B1/6 mice from Taconic Laboratory were used for all experiments. Animals were housed in plastic cages in a temperature-controlled animal facility with alternating 12:12 hour light-dark cycles, with ad libitum access to food and water.
Nineteen timed pregnant C57B1/6 E15.5 mice were injected with LPS in 0.5 ml PBS at a concentration of 50 mg/kg. These mice were randomly assigned to two groups. Group A mice (n=8) received 50 mg/kg HJP272 dissolved in PBS and Group B mice (n=11) received PBS only.
All treatments were administered by ip injection 10 hours after LPS injection. Mice were continually monitored and the time of delivery of all pups, as well as the number of pups delivered, was recorded. All mice were autopsied at the end of the experiment to confirm pregnancy and to determine the number of pups retained in utero.

[3] = tested on: BALF neutrophils in female Syrian hamsters; experiment: Animal model of smoking related acute lung injury (ET-1 plus cigarette smoke, BALF neutrophils); assay type: in vivo, hamster; details: for effect on the ET-1-induced rise of BALF neutrophils (words): 500 μg IP 60 minutes before 5 μg ET-1, then cigarette smoke two hours, three days
Protocol: Animal models of smoking related acute lung injury. The Animal Care and Utilization Committee of the College of Pharmacy and Allied Health Professions, St. John's University approved all experimental protocols, and the research was conducted according to the requirements of NIH Guide for the Care and Use of Laboratory Animals (revised 1996).
Female Syrian hamsters, weighing approximately 100 g each, were divided into two groups as follows: Group 1 was treated IP with: 1) 500 μg of HJP272 in 0.5 mL Na2CO3 and 2) 5 μg ET-1 in 0.25 mL PBS 60 minutes later, followed immediately by exposure to cigarette smoke for two hours. This regimen was continued for three days.
Group 2 was treated IP with: 1) 0.5 mL Na2CO3 and 2) […] ET-1 in 0.25 mL PBS 60 minutes later, followed immediately by exposure to cigarette smoke for three consecutive days as per Group 1. The animals were placed in a 70×48×38 cm chamber and passively exposed to cigarette smoke produced by a TE-10 smoking machine (Teague Enterprises, Davis, Calif.) that simultaneously burned two filtered research-grade cigarettes (type 2R4F, University of Kentucky). Smoke from both the filtered and burning ends of the cigarette was collected, and then mixed together with air in a separate chamber, thus simulating second-hand smoke exposure. Each cigarette was puffed once per minute for two seconds at a flow rate of 1.05 LPM, yielding 35 mL of smoke. This cycle was repeated nine times before ejecting the cigarette and loading a new one. Proper flow rate was maintained by a vacuum pump that established negative pressure at the exhaust port. Total smoke particulates averaged 87 mg per cubic meter.
All animals were sacrificed 24 hours after completing the smoke exposure regimen to maximize the neutrophil population in the lung, and the percentage of BALF neutrophils was measured (van der Vaart et al. 2004)

[4] = tested on: attachment of neutrophils to colonic submucosal venules; details: inflammatory bowel disease; Anthoni et al. 2006; cited from earlier work
[5] = tested on: LPS-induced influx of neutrophils into the lung; details: Bhavsar et al. 2008a, 2008b; cited from earlier work

Compound: CC(C)C[C@@H]1NC(=O)[C@@H](C(C)C)NC(=O)[C@@H]2CCCN2C(=O)[C@@H](CC(=O)O)NC(=O)[C@@H](Cc2c[nH]c3ccccc23)NC1=O [BQ-123] (cyclo(L[dW][dD]P[dV]))
- incidence of premature delivery [1]: decreased incidence of premature delivery

Compound: CCc1cc2c(cc1Cn1c(C(=O)O)c(Cc3cccc(C(=O)O)c3)c(=O)c3cc(O)ccc31)OCO2 [HJP272, 3-(3-carboxybenzyl)-1-((6-ethylbenzo[d][1,3]dioxol-5-yl)methyl)-6-hydroxy-4-oxo-1,4-dihydroquinoline-2-carboxylic acid]
- IC50 (BioXTal ET-A receptor): 70.1 nM
- ratio of IC50 for the endothelin B receptor to IC50 for the endothelin A receptor (BioXTal ET-B receptor): 219.2
- percent of prematurely delivered pups ([2]; E15.5 mice, LPS 50 mg/kg, 50 mg/kg ip 10 hours after LPS, PBS control 39.7): 30.0%
- mice that delivered prematurely ([2]; E15.5 mice, LPS 50 mg/kg, 50 mg/kg ip 10 hours after LPS, control 11 out of 11): six out of eight
- control of premature labor and delivery ([2]; LPS followed by compound versus LPS followed by vehicle): controlled preterm labor and delivery in our mouse model of infection-associated preterm labor very effectively; also recorded: significantly better control of premature delivery
- prevention of premature expulsion of pups ([2]; LPS followed by compound versus LPS followed by vehicle, P<0.0001): significantly greater prevention of premature expulsion of pups
- average delivery time (T) ([2]; the six treated mice that delivered, LPS 50 mg/kg, PBS control T10.9+/−0.61, p<0.0001): 15.0 ± 1.8 h
- craniofacial anomalies in pups ([2]; transient exposure, late in gestation): None of the pups in the work presented here demonstrated such abnormalities
- effect on the ET-1-induced rise of BALF neutrophils (words) [3]: reversed
- effect on the ET-1-induced rise of BALF neutrophils (words) ([3]; listed as ETA-RA): reversed this effect
- effect on the ET-1-induced rise of BALF neutrophils (words) ([3]; listed as HJP-272): reversed
- melting point: 206 to 208 °C

Compound: COc1ccccc1Oc1c(NS(=O)(=O)c2ccc(C(C)(C)C)cc2)nc(-c2ncccn2)nc1OCCO [bosentan]
- attachment of neutrophils to colonic submucosal venules [4]: markedly reduced attachment

Compound: CC(C)C[C@H](NP(=O)(O)O[C@@H]1O[C@@H](C)[C@H](O)[C@@H](O)[C@H]1O)C(=O)N[C@@H](Cc1c[nH]c2ccccc12)C(=O)O [phosphoramidon]
- incidence of premature delivery [1]: decreases the incidence of premature delivery
- LPS-induced influx of neutrophils into the lung [5]: markedly reduces

Compound: Endothelin-1 (CSCSSLMDKECVYFCHLDIIW; disulfide 1-15, 3-11; ends not checked; UniProt P05305 53-73, looked up) [ET-1, reference compound]
- percentage of BALF neutrophils ([3]; ET-1 and room air): 1%
- percentage of BALF neutrophils ([3]; ET-1 prior to cigarette smoke, smoke-only control 18%): 46%
